Experiment [1] deals with U87-MG cells. The experiment can be described thus: Cell viability in combined treatments with TMZ. It is filed as cell-based. To be noted: Homo sapiens, U-87 MG, 100 μM TMZ, 72 h, read-out: cell viability, TMZ alone. As for the experimental part: (§1) Glioma-cell lines were seeded at a density of 1.5 × 10^3 cells/well in 96-well plates, with six replicates per condition. […] Cell viability was determined by MTT assay at 72 h after treatment. For this, MTT (3-(4,5-dimethyl-2-thiazolyl)-2,5-diphenyl-2H-tetrazolium bromide) reagent was added and, after a 3 h incubation at 37 °C and 5% CO2, media was removed and the formed crystals were resuspended in DMSO. Plates were measured at 570 nm using a spectrophotometer. Results were analyzed by GraphPad Prism software and IC50 values were calculated.

The test system of experiment [2] is U87-MG cells. The experiment can be described thus: Dose-response MTT cell viability assay, U87-MG. It is filed as cell-based. To be noted: Homo sapiens, U-87 MG, 72 h, Fig. 2d. How it is done: as §1
A further experiment has as its system U251-MG cells. The experiment can be described thus: Dose-response MTT cell viability assay, U251-MG. Type of experiment: cell-based. To be noted: Homo sapiens, U-251, 72 h, Fig. 2d. How it is done:
as §1
In general terms: Tetrazolium dyes change colour on reduction, which living cells bring about.

In another experiment the test system is U373-MG cells. Description: Dose-response MTT cell viability assay, U373-MG. It is filed as cell-based. The note with it: Homo sapiens, 72 h, Fig. 2d. How it is done: as §1
A further experiment deals with T98-G cells. Description: Dose-response MTT cell viability assay, T98-G. It is filed as cell-based. The note with it: Homo sapiens, T98G, 72 h, Fig. 2d. How it is done: as §1
A further experiment deals with A172 cells. Description: Dose-response MTT cell viability assay, A172. It is filed as cell-based. To be noted: Homo sapiens, A 172, 72 h, Fig. 2d. As for the experimental part: as §1
Experiment [3] concerns patient-derived GNS166 stem cells. Description: Dose-response MTT cell viability assay, GNS166. The note with it: Homo sapiens, 72 h, Fig. 2d. It is filed as cell-based. As for the experimental part:
as §1

Experiment [4] has as its system patient-derived GNS179 stem cells. The experiment can be described thus: Dose-response MTT cell viability assay, GNS179. It is filed as cell-based. The note with it: Homo sapiens, 72 h, Fig. 2d. How it is done: as §1
Experiment [5] has as its system acetyl-α-tubulin (HDAC6 main target) in U251-MG cells. The experiment can be described thus: Western blot of acetyl-α-tubulin and cleaved PARP in U251-MG. Type of experiment: cell-based, human. To be noted: 10 nM, 48 h. As for the experimental part:
Immunoblots were performed following standard procedures. […] Detection was performed by chemiluminiscence using NOVEX ECL Chemi Substrate (ThermoFisher).
On the technique in general: In western blotting, separated proteins are transferred to a membrane and probed.

For orientation: viability means the share of living cells, or the viability signal relative to a control. Regarding `Cn1nnc2c(C(N)=O)ncn2c1=O` [TMZ, temozolomide], the viability at 100 µM in the experiment with U87-MG cells [1] was 85%.

The term IC50 denotes the midpoint of a concentration-inhibition curve. Take `CN1CCc2c(c3ccccc3n2Cc2ccc(C(=O)NO)cc2)C1` [Tubastatin A]: the IC50 in the experiment on U87-MG cells [2] was determined as 23.7 µM; in the experiment on U251-MG cells it was 26.3 µM; with U373-MG cells, 13.2 µM; in the experiment on T98-G cells it was 104 µM; in the experiment on A172 cells, 52.5 µM; in experiment [3], 26.4 µM. In experiment [4], this compound returned an IC50 of 175 µM. In addition, in experiment [5], the α-tubulin hyperacetylation entry is “did not”.

(Values after article PMC7265429, “Characterization of a new small-molecule inhibitor of HDAC6 in glioblastoma” (Cell Death & Disease, 2020).)
